Tests used:
[1] = target: salicylic acid binding protein; assay: Scatchard analysis of [14C] salicylic acid binding; conditions: tobacco SABP; [14C] salicylic acid 2 to 70 μM
Description: Kd is defined herein as the concentration of salicylic acid needed to occupy 50% of the binding sites on the salicylic acid binding protein when the binding process reaches its equilibrium. Thus, a smaller value of Kd indicates a stronger interaction between salicylic acid and salicylic acid binding protein and vice versa. Kd is determined by measuring the amounts of salicylic acid bound to salicylic acid binding-protein at various concentrations of salicylic acid and then plotting the ratio of bound to free, salicylic acid concentrations versus bound salicylic acid concentrations to give a linear plot with a slope of -1/Kd. […]
A key element during the characterization and the purification process is a simple, inexpensive, sensitive and reliable method for determining the salicylic acid binding activity. […] (specifically radioactivity 55 Ci/mol; purchased from New England Nuclear), 150 μl of proteins binding sample was loaded onto the tube column, which was then rapidly centrifuged for 2 minutes at full speed and the solution of proteins and bound [^14 C-salicylic acid] that was excluded from the gel was collected into another tube that had been placed under the tube column during the centrifugation. […]

[2] = test system: guaiacol peroxidases; assay: Guaiacol peroxidase activity in tobacco leaf extracts; assay type: biochemical, Nicotiana tabacum cv. Xanthi nc
Description: Inhibition of peroxidase by SA and INA was determined by measuring the enzyme activities in extracts prepared from tobacco leaves in the absence or presence of 100 μM or 1000 μM SA or INA. Two grams of leaves from 6-8 week old tobacco plants (Nicotiana tabacum cv. Xanthi nc) grown at 22° C. in a 14 hr light cycle were homogenized under liquid nitrogen using a pestle and mortar.
Total guaiacol peroxidase activity was extracted with 100 mM potassium phosphate, pH 6.2, containing 1% (weight/volume) polyvinylpyrrolidone. In order to also extract the ionically bound cell wall isozymes, the extraction buffer was supplemented with 600 mM KCl. Extraction and centrifugation steps were as described for ascorbate peroxidase. After removal of cell debris and ammonium sulfate precipitation (85%), the extract was desalted against 50 mM potassium phosphate, pH 6, containing 25% glycerol. The extract could be stored at -20° C. without significant loss of peroxidase activity.
Guaiacol peroxidase activity was determined by the method of Chance and Maehly (Methods Enzymol. 2: 764 (1955)) using guaiacol as the substrate.
The formation of tetraguaiacol was monitored at 470 nm. The reaction mixture contained 0.25% guaiacol and 100 mM hydrogen peroxide in 20 mM potassium phosphate, pH 6.2. The amount of protein per 1 ml assay was […]. The reaction was measured for five minutes. The assay for horseradish peroxidase was identical, except that only 0.2-0.5 μg protein was used.

[3] = target: cucumber salicylic acid binding protein; assay: Salicylic acid binding activity from cucumber; conditions: cucumber derived salicylic acid binding protein
Excerpt: Several, of the MAbs that bind to the tobacco 57 kDa protein and 280 kDa complex also recognize a 57 kDa protein in fresh homogenates from cucumbers. The salicylic acid binding activity from cucumber has similar affinity (Kd) and specificity as the tobacco salicylic acid binding protein. Like the tobacco salicylic acid binding protein, the cucumber salicylic acid binding protein also has a large native molecular weight (approximately 200 kDa). Thus, it appears that the cucumber salicylic acid binding protein is also a complex composed of multiple subunits at least one of which is probably the 57 kDa protein recognized by the MAbs made against the tobacco salicylic acid binding protein. It should be noted, however, that there may be some minor variation in molecular weight and Kd for salicylic acid binding protein from one plant species to the next. For example, cucumber derived salicylic acid binding protein appears to have an apparent average native molecular weight of about 200 kDa and a Kd of about 30±5 μM.

[4] = test system: SABP; parameters: concentration or dose not given beside the values; conditions: Table 6; previously published data (Chen et al. 1993); cited from earlier work
[5] = test system: H2 O2; assay: Abundance of H2O2 in treated tobacco leaves; assay type: in vivo; conditions: FIG. 11
Excerpt: The abundance of H2 O2 increased in SA- or 3AT-treated tobacco leaves by 50-60% over the control levels observed in water-treated leaves. […] Thus, elevated levels of H2 O2, and in turn, enhanced oxidative stress in vivo, were consistent with inhibition of catalase activity by SA observed in vitro.

Q: With `O=C(O)c1ccccc1O` [salicylic acid, 2-hydroxybenzoic acid] as the compound, how does the Kd [1] read?
A: 14 ± 5 µM

Q: What about the Activity ([2]; POX, 100 μM compound) of the same compound?
A: 2.7 ± 0.3 μmols of oxidized substrate mi

Q: And the Inhibition ([2]; POX, 100 μM compound)?
A: 3%

Q: What about the Activity ([2]; POX, 1,000 μM compound) of the same compound?
A: 2.7 ± 0.4 μmols of oxidized substrate mi

Q: And the Inhibition ([2]; POX, 1,000 μM compound)?
A: 3%

Q: What about the Kd [3] of the same compound?
A: ~30 µM

Q: And the “Inhibition (%) [14C]SA binding” value [4]?
A: 89%

Q: What about the “Increase in abundance of H2O2 over water-treated leaves” value [5] of the same compound?
A: 50-60%

— US5989846A, “Assays to identify inducers of plant defense resistance” (Rutgers, The State University of New Jersey, priority 1995, dated 1999)
